In US9908897B2, “Spirocyclic derivatives” (CHRONOS THERAPEUTICS LIMITED, priority 2014, dated 2018):

What was measured:
[1] = target: human serotonin transporter (SERT) (Homo sapiens (Human), UniProt P31645); experiment: Scintillation Proximity Assay (SPA) competition binding, human SERT; conditions: recombinant hSERT-CHO membranes, [3H]citalopram
Text: (§1) Measure of Affinity to the Human Transporters DAT, NET and SERT
(§2) Affinity is expressed in terms of inhibition constant (Ki) of the compounds of the invention for DAT, NET and SERT, and it is typically calculated from the IC50 values obtained in competition experiments using Cheng and Prusoff equation (Cheng and Prusoff, Biochem. Pharmacol. 22:3099, 1973). In the context of the present invention pKi values (corresponding to the antilogarithm of Ki) are used instead of Ki; pKi are only estimated to be accurate to about 0.3 log unit.
(§3) Scintillation Proximity Assay (SPA) for Human DAT, NET and SERT Binding
(§4) Chinese Hamster Ovary (CHO) cells stably expressing either human DAT (hDAT-CHO) or human NET (hNET-CHO) or human SERT (hSERT-CHO) are used for the membrane preparations for radioligand binding assays using Scintillation proximity Assay (SPA) technique. Each cell line is cultured independently in F-12K Nutrient Mixture containing 10% of Fetal Bovine Serum (FBS) supplemented with 450 μg/ml G-418. When cells are at 70-80% of confluence 3 mM Na Butyrate was added to the cell culture medium. After 24 h of incubation, the culture medium was removed and the cells detached with Versene (DAT) or by scraping (NET and SERT). Cell suspension is centrifuged at 41,000 g for 10 minutes at 4° C. The resultant pellets are re-suspended in 15 volumes of Ice-cold buffer (20 mM HEPES, 145 mM NaCl, 5 mM KCl, pH7.3), homogenized using an Ultra Turrax homogeniser and centrifuged as before. The resultant membrane pellets are re-suspended in up to 15 volume of ice-cold buffer, incubated for 20 minutes at 37-C and centrifuged as before at 41,000 g. The final membrane pellets are re-suspended into 5-10 volumes of ice-cold buffer, dispensed into 0.5 ml aliquots and stored at −80° C. until use. Protein concentration for each preparation is determined using Bio-Rad Protein Assay kit.
(§5) The affinity of the compounds of the invention to the human DAT or NET or SERT transporters is assessed by using the [^3H]WIN-35,428 or [^3H]nisoxetine or [^3H]citalopram binding assays in recombinant human DAT, NET and SERT membranes with the SPA technology. The final assay volume is 50 μL in 384 well plates.
(§6) Briefly, 0.5 μL of test compound in neat DMSO or 0.5 μL of DMSO for total binding (TB) or 0.5 μL of indatraline 1 mM (10 μM final concentration) for non specific binding (NSB) are added to the assay plate. 50 μL of the SPA mixture is added to each well, containing: 30 μg/mL or 10 μg/mL or 25 μg/mL DAT, NET, SERT membranes, respectively; 5 nM [^3H]WIN-35,428 or 5 nM [^3H]nisoxetine or 1 nM [^3H]citalopram, for DAT, NET, SERT assay, respectively; 2.5 mg/mL or 1 mg/mL or 4 mg/mL WGA-PVT SPA beads (PerkinElmer RPNQ0001, for DAT, NET, SERT assay, respectively. All components are added to Assay Buffer (20 mM HEPES pH 7.4, 145 mM NaCl, 5 mM KCl, 0.01% Pluronic F-127). 0.02% BSA was used for DAT binding only. Plates are sealed with Topseal A and centrifuged 1 min, 800 rpm. Plates are loaded into a 1450 Microbeta TriLux (Perkin-Elmer) plate reader and the radioactivity counted after at least 4 hrs or overnight incubation at room temperature. Curve fitting and IC50 estimations are performed using a four parameter model in XLfit (IDBS, Guilford, UK) for Microdoft Excel (Microsoft, Redmond, Wash.).

[2] = target: human dopamine transporter (DAT) (Homo sapiens (Human), UniProt Q01959); experiment: Scintillation Proximity Assay (SPA) competition binding, human DAT; conditions: recombinant hDAT-CHO membranes, [3H]WIN-35,428
Sequence of human dopamine transporter (DAT) (Q01959 whole entry): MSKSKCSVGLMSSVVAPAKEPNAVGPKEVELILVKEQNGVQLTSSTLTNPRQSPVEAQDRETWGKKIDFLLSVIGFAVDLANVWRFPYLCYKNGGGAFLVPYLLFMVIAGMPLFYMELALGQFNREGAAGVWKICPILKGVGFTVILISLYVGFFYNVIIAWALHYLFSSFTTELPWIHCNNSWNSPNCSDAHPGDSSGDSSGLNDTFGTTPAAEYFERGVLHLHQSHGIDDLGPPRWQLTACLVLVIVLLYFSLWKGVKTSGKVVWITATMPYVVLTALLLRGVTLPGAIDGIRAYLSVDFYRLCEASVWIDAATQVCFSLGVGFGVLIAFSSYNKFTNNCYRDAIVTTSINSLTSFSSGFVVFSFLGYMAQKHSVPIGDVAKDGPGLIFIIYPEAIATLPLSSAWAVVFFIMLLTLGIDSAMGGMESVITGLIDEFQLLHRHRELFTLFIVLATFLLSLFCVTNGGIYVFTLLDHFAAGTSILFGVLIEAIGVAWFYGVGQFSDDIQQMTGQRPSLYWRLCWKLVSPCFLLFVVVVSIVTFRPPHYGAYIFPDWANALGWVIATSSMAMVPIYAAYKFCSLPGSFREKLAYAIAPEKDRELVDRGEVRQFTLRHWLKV
Text: as §1
In the context of the present invention pKi values (corresponding to the antilogarithm of Ki) are used instead of Ki; pKi are only estimated to be accurate to about 0.3 log unit.
as §3, §4, §5, §6

[3] = target: human norepinephrine transporter (NET) (Homo sapiens (Human), UniProt P23975); experiment: Scintillation Proximity Assay (SPA) competition binding, human NET; conditions: recombinant hNET-CHO membranes, [3H]nisoxetine
Sequence of human norepinephrine transporter (NET) (P23975 whole entry): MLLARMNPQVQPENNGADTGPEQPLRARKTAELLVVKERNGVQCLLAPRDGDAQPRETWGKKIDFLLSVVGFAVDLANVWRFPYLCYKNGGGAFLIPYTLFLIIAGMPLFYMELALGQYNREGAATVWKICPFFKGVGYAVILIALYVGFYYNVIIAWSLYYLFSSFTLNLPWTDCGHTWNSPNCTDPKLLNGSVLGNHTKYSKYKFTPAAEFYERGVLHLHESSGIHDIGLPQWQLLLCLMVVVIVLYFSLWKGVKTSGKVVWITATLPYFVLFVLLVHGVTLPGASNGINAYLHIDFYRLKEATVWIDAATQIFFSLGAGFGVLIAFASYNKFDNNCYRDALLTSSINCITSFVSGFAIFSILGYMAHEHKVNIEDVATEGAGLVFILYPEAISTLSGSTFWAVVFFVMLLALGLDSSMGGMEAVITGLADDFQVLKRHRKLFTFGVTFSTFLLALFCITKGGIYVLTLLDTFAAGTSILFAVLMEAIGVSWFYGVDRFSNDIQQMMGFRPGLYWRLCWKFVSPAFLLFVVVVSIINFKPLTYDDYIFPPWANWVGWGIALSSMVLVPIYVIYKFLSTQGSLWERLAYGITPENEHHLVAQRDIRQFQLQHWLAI
Text: as §1, §2, §3, §4, §5, §6

Sequence of human serotonin transporter (SERT) (P31645 whole entry): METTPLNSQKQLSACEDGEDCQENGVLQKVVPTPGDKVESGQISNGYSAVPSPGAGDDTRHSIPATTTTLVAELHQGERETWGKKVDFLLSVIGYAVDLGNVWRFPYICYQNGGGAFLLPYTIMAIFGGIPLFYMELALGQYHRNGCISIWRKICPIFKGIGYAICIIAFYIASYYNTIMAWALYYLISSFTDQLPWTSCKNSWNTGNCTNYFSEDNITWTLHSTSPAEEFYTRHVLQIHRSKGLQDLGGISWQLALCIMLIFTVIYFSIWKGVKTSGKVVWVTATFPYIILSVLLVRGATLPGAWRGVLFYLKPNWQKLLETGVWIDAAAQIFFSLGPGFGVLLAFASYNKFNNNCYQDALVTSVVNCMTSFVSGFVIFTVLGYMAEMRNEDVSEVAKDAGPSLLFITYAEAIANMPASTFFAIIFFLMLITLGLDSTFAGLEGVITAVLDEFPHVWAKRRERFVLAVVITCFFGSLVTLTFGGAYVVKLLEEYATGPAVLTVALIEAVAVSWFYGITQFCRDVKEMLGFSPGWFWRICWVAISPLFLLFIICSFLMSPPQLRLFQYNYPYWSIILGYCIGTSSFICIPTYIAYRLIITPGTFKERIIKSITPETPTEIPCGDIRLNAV

SMILES	IC50 [1]	pIC50 DAT [2]	pIC50 NET [3]	pIC50 SERT [1]
O=C1CNCC2(CCN(c3nc(Oc4cccc(F)c4)cc(C(F)(F)F)n3)CC2)N1 [Example 73, 9-[4-(3-fluorophenoxy)-6-(trifluoromethyl)pyrimidin-2-yl]-1,4,9-triazaspiro[5.5]undecan-2-one]	> 100 µM	6.32	4.82	
Cl.N#Cc1c(C(F)(F)F)cc(N2CCC3(CC2)CNCCO3)nc1Oc1cccc(F)c1 [Example 39, 2-(3-fluorophenoxy)-6-{1-oxa-4,9-diazaspiro[5.5]undecan-9-yl}-4-(trifluoromethyl)pyridine-3-carbonitrile hydrochloride]		6.68	5.78	4.50
Cl.N#Cc1cc(Oc2cccc(F)c2)nc(N2CCC3(CC2)CNCCO3)c1 [Example 38, 2-(3-fluorophenoxy)-6-{1-oxa-4,9-diazaspiro[5.5]undecan-9-yl}pyridine-4-carbonitrile hydrochloride]		8.61	6.75	7.27
Cl.FC(F)(F)c1cc(Oc2cccs2)nc(N2CCC3(CC2)CNCCO3)n1 [Example 60, 9-[4-(thiophen-2-yloxy)-6-(trifluoromethyl)pyrimidin-2-yl]-1-oxa-4,9-diazaspiro[5.5]undecane hydrochloride]		7.34	5.75	5.83
Fc1cccc(Oc2cc(N3CCC4(CC3)CNCCO4)cc(F)c2F)c1 [Example 15, 9-[3,4-difluoro-5-(3-fluorophenoxy)phenyl]-1-oxa-4,9-diazaspiro[5.5]undecane]		7.05	6.02	7.03
Fc1cccc(Oc2cc(N3CCC4(CC3)CNCCO4)c(F)cc2F)c1 [Example 12, 9-[2,4-difluoro-5-(3-fluorophenoxy)phenyl]-1-oxa-4,9-diazaspiro[5.5]undecane]		6.78	5.75	5.97
Fc1cccc(Oc2cc(F)c(F)cc2N2CCC3(CNCCC34OCCO4)C2)c1 (stereo not drawn) [Example 85, 8-[4,5-difluoro-2-(3-fluorophenoxy)phenyl]-1,4-dioxa-8,12-diazadispiro[4.0.4^6.4^5]tetradecane]		6.62	5.81	6.35
Cc1cc(Oc2cccnc2)nc(N2CCC3(CC2)CNCCO3)n1.Cl [Example 53, 9-[4-methyl-6-(pyridin-3-yloxy)pyrimidin-2-yl]-1-oxa-4,9-diazaspiro[5.5]undecane hydrochloride]		6.63	5.21	4.56
Cl.Fc1cccc(Oc2cccc(N3CCC4(CC3)CNCCO4)n2)c1 [Example 36, 9-[6-(3-fluorophenoxy)pyridin-2-yl]-1-oxa-4,9-diazaspiro[5.5]undecane hydrochloride]		7.37	5.73	5.66
CSc1cc(Oc2cccc(F)c2)nc(N2CCC3(CC2)CNCCO3)n1.Cl [Example 63, 9-[4-(3-fluorophenoxy)-6-(methylsulfanyl)pyrimidin-2-yl]-1-oxa-4,9-diazaspiro[5.5]undecane hydrochloride]		8.07	6.34	5.15
Cl.Fc1cccc(Oc2cc(F)c(F)cc2N2CCC3(CCNCC34OCCO4)C2)c1 (stereo not drawn) [Example 94, 8-[4,5-difluoro-2-(3-fluorophenoxy)phenyl]-1,4-dioxa-8,13-diazadispiro[4.0.4^6.4^5]tetradecane hydrochloride]		8.69	7.11	7.14
c1ccc(Oc2cccc(N3CCC4(CC3)CNCCO4)c2)cc1 [Example 6, 9-(3-phenoxyphenyl)-1-oxa-4,9-diazaspiro[5.5]undecane]		7.41	5.83	6.12
Cc1cc(Oc2cccc(OC(F)(F)F)c2)nc(N2CCC3(CC2)CNCCO3)n1.Cl [Example 47, 9-{4-methyl-6-[3-(trifluoromethoxy)phenoxy]pyrimidin-2-yl}-1-oxa-4,9-diazaspiro[5.5]undecane hydrochloride]		6.59	5.51	5.27
Cl.Fc1cccc(Oc2cc(F)c(F)cc2N2CCC3(CC2)CNCC(F)(F)O3)c1 [Example 69, 9-[4,5-difluoro-2-(3-fluorophenoxy)phenyl]-2,2-difluoro-1-oxa-4,9-diazaspiro[5.5]undecane hydrochloride]	> 100 µM	5.97	5.06	
Cl.Fc1cccc(Oc2cc(F)cc(N3CCC4(CC3)CNCCO4)c2)c1 [Example 9, 9-[3-fluoro-5-(3-fluorophenoxy)phenyl]-1-oxa-4,9-diazaspiro[5.5]undecane hydrochloride]		8.38	6.91	7.00
Cc1cc(Oc2cc(F)cc(F)c2)nc(N2CCC3(CC2)CNCCO3)n1.Cl [Example 50, 9-[4-(3,5-difluorophenoxy)-6-methylpyrimidin-2-yl]-1-oxa-4,9-diazaspiro[5.5]undecane hydrochloride]		8.24	6.96	5.11
Fc1cccc(Oc2cc(F)c(F)cc2N2CCCC3(CCCNC3)C2)c1 (stereo not drawn) [Example 81, 2-[4,5-difluoro-2-(3-fluorophenoxy)phenyl]-2,8-diazaspiro[5.5]undecane]		7.18	6.25	6.71
CSc1cc(N2CCC3(CC2)CNCCO3)nc(Oc2cccc(F)c2)n1.Cl [Example 64, 9-[2-(3-fluorophenoxy)-6-(methylsulfanyl)pyrimidin-4-yl]-1-oxa-4,9-diazaspiro[5.5]undecane hydrochloride]		6.38	5.35	4.86
Cc1ccc(Oc2ccccc2)cc1N1CCC2(CC1)CNCCO2 [Example 29, 9-(2-methyl-5-phenoxyphenyl)-1-oxa-4,9-diazaspiro[5.5]undecane]		7.44	6.01	5.80
Cc1cc(Oc2ccccc2C)nc(N2CCC3(CC2)CNCCO3)n1.Cl [Example 51, 9-[4-methyl-6-(2-methylphenoxy)pyrimidin-2-yl]-1-oxa-4,9-diazaspiro[5.5]undecane hydrochloride]		7.33	5.78	5.21
CN1CCNCC12CCN(c1nc(Oc3cccc(F)c3)cc(C(F)(F)F)n1)CC2 [Example 74, 9-[4-(3-fluorophenoxy)-6-(trifluoromethyl)pyrimidin-2-yl]-1-methyl-1,4,9-triazaspiro[5.5]undecane]		8.38	6.42	4.95
Cl.Fc1cccc(Oc2cc(F)c(F)cc2N2CCC3(CC2)CNCCO3)c1 [Example 2, 9-[4,5-difluoro-2-(3-fluorophenoxy)phenyl]-1-oxa-4,9-diazaspiro[5.5]undecane hydrochloride]		8.14	6.03	6.49
Fc1cccc(Oc2cc(C(F)(F)F)nc(N3CC4(CNCCO4)C3)n2)c1 [Example 102, 2-[4-(3-fluorophenoxy)-6-(trifluoromethyl)pyrimidin-2-yl]-5-oxa-2,8-diazaspiro[3.5]nonane]		8.00	6.22	4.00
